This note sets out measurements from US4145444A, “Anti-inflammatory agent of benzoyl derivative” (priority 1977, dated 1979).

Read-outs that look alike come from different tables or passages of the source.

One experiment relates to hind paws of male rats. Briefly: Anti-inflammatory effect: acute carragheenin edema method. The format is in vivo. Particulars: Rattus norvegicus; for inhibition in vivo at 100 mg/kg: read-out: Anti-inf.: edema inhibition rate. How it is done: The edema was induced by subcutaneous injection of 1% carragheenin suspension in saline to the hind paws of male rats weighting 150 to 180 g. Each sample was orally given at the dosage of 100 mg/kg just before the inoculation of carragheenin.

A further experiment concerns thrombus. Briefly: Inhibiting effect on thrombosis (by-pass between left juglar vein and right carotid artery, silk thread). Particulars: Rattus norvegicus, read-out: Thrombosis inh.: thrombosis inhibition rate. The format is in vivo, SD type male rates. In short, it runs like this: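 Arteriovenous shunt with silk thread and heparin saline, run as three successive 15-min circulations, with thrombus wet weight measured on the thread each time. Compound given orally in carboxymethyl cellulose suspension at 100 mg/kg 5 h before the first circulation. Inhibition rate derived against control circulations.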

Another experiment has as its system platelet. Briefly: Blood platelet aggregation inhibiting effect (collagen-induced). The format is cell-based, rabbits. Particulars: Oryctolagus cuniculus, Platelet, read-out: Blood platelet agg. inh.: percentage inhibition of platelet aggregation. The source says:
Male rabbits (Japan original white strain 3.3 to 3.6 kg) were anesthetized with Thiopental sodium and blood was sampled from the carotid artery.

The subject of a further experiment is male mice. Nature of the experiment: Analgesic effect: painful stretchings following intraperitoneal 0.7% acetic acid. Particulars: Mus musculus, po, read-out: Analgesic: percentage diminition of times of painful stretching.
Setting [1] is: 100 mg/kg oral, carragheenin edema, male rats (Table 2).
The mark [2] stands for this setting: 100 mg/kg oral, 5 hours before first blood circulation, rats.
Setting [3] is: 10^-4 mole, collagen inducer, rabbit PRP.

Procedure for male mice: Each sample was orally administered in the dosage of 100 mg/kg before injection of acetic acid.

Take `Cc1ccc(C(=O)c2ccccc2)c(C)c1` [compound 37]: the inhibition in vivo at 100 mg/kg was 39.6% with hind paws of male rats (setting [1]), 5.3% with thrombus (setting [2]) and 9.8% in the experiment on male mice. In addition, the inhibition at 100 µM in the experiment with platelet (setting [3]) was 17.4%.

Turning to `COc1ccc(C(=O)Cc2ccc(Cl)cc2)cc1` [compound 60], the figures for the inhibition in vivo at 100 mg/kg in the experiment on hind paws of male rats (setting [1]), in the experiment with thrombus (setting [2]) and in the experiment on male mice were 13.2%, 12.3% and 6.3%, respectively. In addition, the inhibition at 100 µM in the experiment on platelet (setting [3]) amounted to 4%.

`CCCc1ccc(C(=O)c2ccc(CC)cc2)cc1` [compound 112]: the inhibition in vivo at 100 mg/kg came to 14.1% in the experiment with hind paws of male rats (setting [1]), 15.5% in the experiment with thrombus (setting [2]) and 6.7% with male mice. The inhibition at 100 µM in the experiment on platelet (setting [3]) was found to be 11.8%.

`CCCc1ccc(C(=O)c2ccc(OC)cc2)cc1` [compound 93]: the results for the inhibition in vivo at 100 mg/kg in the experiment on hind paws of male rats (setting [1]), in the experiment with thrombus (setting [2]) and with male mice were 20.4%, 26.8% and 14.7%, respectively. The inhibition at 100 µM in the experiment with platelet (setting [3]) came out at 24.4%.

Take `CCCCCCCCc1ccc(C(=O)c2ccccc2)cc1` [compound 26]: the inhibition in vivo at 100 mg/kg in the experiment with hind paws of male rats (setting [1]) worked out at 47.2%; in the experiment on thrombus (setting [2]), 24.8%; in the experiment on male mice it was 35.9%. In addition, in the experiment with platelet (setting [3]), the inhibition at 100 µM amounted to 3.1%.

Regarding `CCCCc1ccc(C(=O)Cc2ccccc2)cc1` [compound 39], the inhibition in vivo at 100 mg/kg in the experiment with hind paws of male rats (setting [1]) was 35.9%; in the experiment with thrombus (setting [2]) it was 15.9%; in the experiment with male mice, 23.1%. For the same compound, the inhibition at 100 µM in the experiment with platelet (setting [3]) came out at 2.6%.

For the compound `O=C(c1ccc(F)cc1)c1ccccc1Cl` [compound 115], the figures for the inhibition in vivo at 100 mg/kg in the experiment on hind paws of male rats (setting [1]), in the experiment with thrombus (setting [2]) and with male mice were 14.5%, 27.5% and 11.8%, respectively. The inhibition at 100 µM in the experiment with platelet (setting [3]) was 25.4%.

Turning to `CCc1ccc(CC)c(C(=O)c2ccccc2)c1` [compound 80], the inhibition in vivo at 100 mg/kg with hind paws of male rats (setting [1]) was determined as 31.9%; with thrombus (setting [2]) it was 28.5%; in the experiment on male mice, 16.2%. The inhibition at 100 µM with platelet (setting [3]) came to 30.3%.

On to `O=C(c1ccccc1)c1ccc(O)cc1` [compound 109], for which the inhibition in vivo at 100 mg/kg in the experiment with hind paws of male rats (setting [1]) was 12.7%; with thrombus (setting [2]), 20.3%; with male mice, 2.6%. Further, the inhibition at 100 µM in the experiment on platelet (setting [3]) came out at 13.7%.

Regarding `Cc1cc(C)c(C(=O)c2ccc(O)cc2)c(C)c1` [compound 108], the inhibition in vivo at 100 mg/kg in the experiment on hind paws of male rats (setting [1]) is 10.5%; in the experiment with thrombus (setting [2]), 34.7%; with male mice it was 3.1%. Also, the inhibition at 100 µM in the experiment on platelet (setting [3]) came out at 28.4%.

As to `CCOc1ccc(C(=O)c2ccccc2)cc1` [compound 81], the inhibition in vivo at 100 mg/kg in the experiment with hind paws of male rats (setting [1]) was 15.3%; in the experiment on thrombus (setting [2]) it was 20.3%; in the experiment on male mice, 17.6%. The inhibition at 100 µM with platelet (setting [3]) worked out at 18.3%.

Take `Cc1cc(C)c(C(=O)c2ccc(Cl)cc2)c(C)c1` [compound 14]: the inhibition in vivo at 100 mg/kg with hind paws of male rats (setting [1]) was found to be 37.3%; in the experiment with thrombus (setting [2]), 23.3%; with male mice it was 19.2%. Further, in the experiment on platelet (setting [3]), the inhibition at 100 µM stood at 18.1%.

Regarding `CCCCCc1ccc(C(=O)c2ccccc2F)cc1` [compound 9], the values for the inhibition in vivo at 100 mg/kg with hind paws of male rats (setting [1]), with thrombus (setting [2]) and with male mice were 74.6%, 25.3% and 15.3%, respectively. Also, the inhibition at 100 µM in the experiment on platelet (setting [3]) worked out at 14.6%.

`CCCCCCCCCCc1ccc(C(=O)Cc2ccccc2)cc1` [compound 50]: the values for the inhibition in vivo at 100 mg/kg with hind paws of male rats (setting [1]), with thrombus (setting [2]) and in the experiment on male mice were 25.5%, 28.3% and 16.4%, respectively. In addition, in the experiment on platelet (setting [3]), the inhibition at 100 µM was 8.7%.

With `Cc1cc(C)c(C(=O)c2ccccc2)c(C)c1C` [compound 79], the inhibition in vivo at 100 mg/kg in the experiment on hind paws of male rats (setting [1]) came out at 33.2%; in the experiment with thrombus (setting [2]) it was 31.5%; in the experiment on male mice, 20.8%. Moreover, the inhibition at 100 µM in the experiment with platelet (setting [3]) came out at 26.8%.

On to `O=C(c1ccccc1)c1ccccc1` [compound 27], for which the 50% effective dose (ED50) with hind paws of male rats (po, read-out: 50% inhibition ED50 (values in brackets)) was 120 mg/kg. The inhibition in vivo at 100 mg/kg with hind paws of male rats (po) turned out to be 47.7%; with thrombus (po, 5 h), 25.9%; with male mice, 13.2%. In addition, the inhibition at 100 µM with platelet (setting [3]) is 25.7%.

Take `CCCCCc1ccc(C(=O)c2ccc(CCCCC)cc2)cc1` [compound 111]: the inhibition in vivo at 100 mg/kg with hind paws of male rats (setting [1]) was 20.6%; with thrombus (setting [2]), 17.3%; with male mice, 11.3%. For the same compound, in the experiment with platelet (setting [3]), the inhibition at 100 µM was determined as 10.3%.

`O=C(c1ccccc1)c1ccccc1C(=O)c1ccccc1` [compound 113]: the inhibition in vivo at 100 mg/kg with hind paws of male rats (setting [1]) was found to be 38.7%; in the experiment on thrombus (setting [2]) it was 30.4%; with male mice, 14.5%. For the same compound, in the experiment with platelet (setting [3]), the inhibition at 100 µM came to 25.8%.

Consider `CCCCc1ccc(C(=O)C(=O)c2ccccc2)cc1` [compound 29], for which the inhibition in vivo at 100 mg/kg in the experiment with hind paws of male rats (setting [1]) worked out at 44.7%; in the experiment with thrombus (setting [2]), 15.3%; in the experiment with male mice, 2.7%. Moreover, the inhibition at 100 µM with platelet (setting [3]) was found to be 11.1%.

For the compound `CCCCCCOc1ccc(C(=O)Cc2ccc(Cl)cc2)cc1` [compound 62], the inhibition in vivo at 100 mg/kg amounted to 12.5% in the experiment on hind paws of male rats (setting [1]), 7.8% in the experiment on thrombus (setting [2]) and 10.2% in the experiment with male mice. In addition, in the experiment with platelet (setting [3]), the inhibition at 100 µM amounted to 12.3%.

As for `COc1ccc(C(=O)c2ccccc2)c(OC)c1` [compound 74], the results for the inhibition in vivo at 100 mg/kg with hind paws of male rats (setting [1]), in the experiment with thrombus (setting [2]) and in the experiment on male mice were 30.2%, 28.9% and 24.2%, respectively. The inhibition at 100 µM in the experiment on platelet (setting [3]) was found to be 18.5%.

As for `Cc1ccc(C(=O)c2ccccc2)cc1` [compound 65], the inhibition in vivo at 100 mg/kg worked out at 17.3% in the experiment with hind paws of male rats (setting [1]), 19.2% in the experiment with thrombus (setting [2]) and 10.9% with male mice. Besides, in the experiment on platelet (setting [3]), the inhibition at 100 µM stood at 21%.

On to `CCCCCCCCCCc1ccc(C(=O)c2ccccc2)cc1` [compound 68], for which the inhibition in vivo at 100 mg/kg in the experiment with hind paws of male rats (setting [1]) is 17.6%; in the experiment on thrombus (setting [2]), 20.3%; in the experiment with male mice it was 5.8%. In addition, the inhibition at 100 µM in the experiment on platelet (setting [3]) stood at 16.5%.

As to `CCc1ccc(C(=O)c2ccccc2)cc1` [compound 66], the inhibition in vivo at 100 mg/kg in the experiment on hind paws of male rats (setting [1]) was determined as 34.4%; in the experiment on thrombus (setting [2]), 20.5%; in the experiment with male mice, 15.7%. Also, in the experiment on platelet (setting [3]), the inhibition at 100 µM was found to be 20.7%.

With `CCCc1ccc(C(=O)c2ccc(CCC)cc2)cc1` [compound 110], the inhibition in vivo at 100 mg/kg in the experiment on hind paws of male rats (setting [1]) worked out at 17%; with thrombus (setting [2]), 18.6%; in the experiment with male mice, 10.5%. Moreover, the inhibition at 100 µM with platelet (setting [3]) came out at 20.5%.

For `COc1ccc(C(=O)C(=O)c2ccccc2)cc1`, the inhibition in vivo at 100 mg/kg turned out to be 43.9% with hind paws of male rats (po); 18.3% with thrombus (po, 5 h); 10.2% in the experiment on male mice. Besides, the inhibition at 100 µM with platelet is 20.1%.

With `CCCCc1ccc(C(=O)c2ccccc2F)cc1` [compound 8], the inhibition in vivo at 100 mg/kg came out at 82.6% in the experiment on hind paws of male rats (setting [1]), 38% with thrombus (setting [2]) and 14.8% in the experiment on male mice. Besides, the inhibition at 100 µM with platelet (setting [3]) turned out to be 24%.

`O=C(c1ccc(F)cc1)c1ccc(F)cc1` [compound 114]: the inhibition in vivo at 100 mg/kg was 33.2% in the experiment on hind paws of male rats (setting [1]), 31.1% with thrombus (setting [2]) and 18.3% in the experiment on male mice. Also, the inhibition at 100 µM in the experiment on platelet (setting [3]) amounted to 26.8%.

For the compound `CCCCCc1ccc(C(=O)c2ccc(O)cc2)cc1` [compound 105], the inhibition in vivo at 100 mg/kg turned out to be 33.6% in the experiment with hind paws of male rats (setting [1]), 31.4% with thrombus (setting [2]) and 14.1% in the experiment with male mice. Besides, the inhibition at 100 µM with platelet (setting [3]) worked out at 24.1%.

With `CCCCOc1ccc(C(=O)c2ccccc2)cc1` [compound 42], the inhibition in vivo at 100 mg/kg with hind paws of male rats (setting [1]) is 35.8%; with thrombus (setting [2]), 10.7%; in the experiment on male mice it was 26.8%. In the experiment on platelet (setting [3]), the inhibition at 100 µM was found to be 4.4%.

Take `Cc1cc(C)c(C)c(C(=O)c2ccccc2)c1C` [compound 78]: the inhibition in vivo at 100 mg/kg came out at 12.5% with hind paws of male rats (setting [1]), 20.2% in the experiment with thrombus (setting [2]) and 5.4% with male mice. Further, in the experiment with platelet (setting [3]), the inhibition at 100 µM was 19.9%.

`CCCOc1ccc(C(=O)Cc2ccccc2)cc1` [compound 58]: the inhibition in vivo at 100 mg/kg in the experiment with hind paws of male rats (setting [1]) was determined as 15.3%; in the experiment with thrombus (setting [2]), 14.6%; in the experiment on male mice, 19.8%. Also, the inhibition at 100 µM in the experiment with platelet (setting [3]) came to 20.1%.

The inhibition is the change of the read-out against control, counted positive when it falls. As a reminder, the ED50 is the dose that gives a 50% effect, or the effect in half of the subjects.
